# Test results taken from patent US12465050B2, “Compositions comprising a pyridine carboxylate herbicide and protoporphyrinogen oxidase (protox) inhibitor herbicides” (priority 2018, dated 2025).
# What was measured:
# Format in all cases: in vivo
# [1] = test system: Rumex obtusifolius (broad-leaf dock); experiment: Greenhouse postemergence herbicidal effect on RUMOB
# Excerpt: (§1) Greenhouse Trial Methodology—Evaluation of Postemergence Herbicidal Effect
# (§2) Seeds of the desired test plant species were planted in a 90:10% v/v (volume/volume) mixture of PRO-MIX® BX (Premier Tech Horticulture, Quakertown, Pa., USA) and PROFILE® GREENS GRADE™ (Profile Products LLC, Buffalo Grove, Ill., USA) planting mixture, which typically has a pH of 5.2 to 6.2 and an organic matter content of at least 50 percent, in plastic pots with a surface area of 103.2 square centimeters (cm^2). In some aspects or embodiments, to help ensure good germination and healthy plants, a fungicide treatment and/or other chemical or physical treatment was applied. The plants were grown for 7-36 days (d) in a greenhouse with an approximate 14-hour (h) photoperiod which was maintained at about 23° C. during the day and 22° C. during the night. Nutrients and water were added on a regular basis and supplemental lighting was provided with overhead metal halide 1000-Watt lamps as necessary. The plants were employed for testing when they reached the second or third true leaf stage.
# (§3) Emulsifiable concentrates of each of each pyridine carboxylate herbicide (Compound A or Compound B) were prepared at 100 grams acid equivalent per liter (g ae/L). The emulsifiable concentrates also included a safener, cloquintocet mexyl, at 120 grams active ingredient per liter (g ai/L). An aliquot of each emulsifiable concentrate was placed in a 25 mL glass vial and diluted with an aqueous mixture of 1.25% (v/v) ACTIROB® B esterified rapeseed oil (Bayer Crop Science, Research Triangle Park, N.C., USA) or MSO® Concentrate with LECI-TECH® methylated soybean oil (Loveland Products, Loveland, Colo., USA) to obtain concentrated stock solutions at the highest application rate for each herbicide, based upon a 12 milliliter (mL) application volume at a rate of 187 liters per hectare (L/ha). The concentrated stock solutions were further diluted with an aqueous mixture of 1.25% v/v ACTIROB® B or MSO® Concentrate with LECI-TECH® to obtain stock solutions at reduced application rates for each herbicide. Spray solutions of the herbicide combinations (Compound A or Compound B plus PROTOX inhibitor herbicide) were prepared by adding weighed amounts or aliquots of the PROTOX inhibitor herbicides to the stock solutions of Compound A or Compound B to form 12-mL spray solutions in two-way combinations.
# (§4) The spray solutions were applied to the plant material with an overhead Mandel track sprayer equipped with 8002E nozzles calibrated to deliver 187 L/ha over an application area of 0.503 square meters (m^2) at a spray height of 18 inches (43 centimeters (cm)) above the average plant canopy. Control plants were sprayed in the same manner with the solvent blank. All pyridine carboxylate herbicide (component a) application rates are given as “g ae/ha” and all PROTOX inhibitor herbicide (component b) application rates are given as “g ai/ha.”
# (§5) The treated plants and control plants were placed in a greenhouse as described above and watered by sub-irrigation to prevent wash-off of the test compounds. After 20-22 d, the condition of the test plants as compared with that of the control plants was determined visually and scored on a scale of 0 to 100 percent where 0 corresponds to no injury and 100 corresponds to complete kill.
# [2] = test system: Veronica persica (Persian speedwell); experiment: Greenhouse postemergence herbicidal effect on VERPE
# Excerpt: as §1, §2
# as §3, with “combinations. […]” for “combinations.”
# as §5
# [3] = test system: Capsella bursa-pastoris (shepherd's purse); experiment: Greenhouse postemergence herbicidal effect on CAPBP
# Excerpt: as §1, §2
# as §3, with “combinations. […]” for “combinations.”
# as §5
# [4] = test system: Matricaria chamomilla (wild chamomile); experiment: Greenhouse postemergence herbicidal effect on MATCH
# Excerpt: as §1, §2, §3, §4, §5
# [5] = test system: Setaria faberi (giant foxtail); experiment: Greenhouse postemergence herbicidal effect on SETFA
# Excerpt: as §1, §2, §3, §4, §5
# Zea mays (maize) = experiment: Greenhouse postemergence phytotoxicity on crop ZEAMX
# Excerpt: as §1, §2
# (§6) Emulsifiable concentrates of each of each pyridine carboxylate herbicide (Compound A or Compound B) were prepared at 100 grams acid equivalent per liter (g ae/L). The emulsifiable concentrates also included a safener, cloquintocet mexyl, at 120 grams active ingredient per liter (g ai/L). […]
# as §5
# [6] = test system: Viola tricolor (wild pansy); experiment: Greenhouse postemergence herbicidal effect on VIOTR
# Excerpt: as §1, §2, §3, §4, §5
# [7] = test system: Sinapis arvensis (wild mustard); experiment: Greenhouse postemergence herbicidal effect on SINAR
# Excerpt: as §1, §2, §3, §4, §5
# [8] = test system: Papaver rhoeas (herbicide-resistant poppy); experiment: Greenhouse postemergence herbicidal effect on PAPRH-RES
# Excerpt: as §1, §2
# as §3, with “combinations. […]” for “combinations.”
# as §5
# [9] = test system: Salsola kali (Russian thistle); experiment: Greenhouse postemergence herbicidal effect on SASKR
# Excerpt: as §1, §2, §3, §4, §5
# [10] = test system: Hordeum vulgare (winter barley); experiment: Greenhouse postemergence phytotoxicity on crop HORVW
# Excerpt: as §1, §2
# as §3, with “combinations. […]” for “combinations.”
# as §5
# [11] = test system: Brassica napus (winter rape); experiment: Greenhouse postemergence herbicidal effect on BRSNW
# Excerpt: as §1, §2, §3, §4, §5
# [12] = test system: Hordeum vulgare (spring barley); experiment: Greenhouse postemergence phytotoxicity on crop HORVS
# Excerpt: as §1, §2, §3, §4, §5
# [13] = test system: Sorghum vulgare (sorghum); experiment: Greenhouse postemergence herbicidal effect on SORVU
# Excerpt: as §1, §2, §6, §5
# [14] = test system: Viola arvensis (field violet); experiment: Greenhouse postemergence herbicidal effect on VIOAR
# Excerpt: as §1, §2
# as §3, with “combinations. […]” for “combinations.”
# as §5
# [15] = Compound A 7.5, Saflufenacil 0 g/ha
# [16] = Compound A 10, Saflufenacil 0 g/ha
# [17] = Compound A 7.5, Oxyfluorfen 0 g/ha
# [18] = Compound A 10, Oxyfluorfen 0 g/ha
# [19] = Compound A 15, Oxyfluorfen 0 g/ha
# [20] = Compound A 7.5, Pyraflufen-ethyl 0 g/ha
# [21] = Compound A 10, Pyraflufen-ethyl 0 g/ha
# [22] = Compound A 7.5, Pyraclonil 0 g/ha
# [23] = Compound A 10, Pyraclonil 0 g/ha
# [24] = Compound A 7.5, Carfentrazone-ethyl 0 g/ha
# [25] = Compound A 10, Carfentrazone-ethyl 0 g/ha
smiles,measurement,setting,value
"N#CCOC(=O)c1nc(-c2ccc3cc[nH]c3c2F)c(F)c(N)c1Cl [Compound A, cyanomethyl 4-amino-3-chloro-5-fluoro-6-(7-fluoro-1H-indol-6-yl)pyridine-2-carboxylate]","% visual injury, Obs","[1]; Compound A 7.5, Bifenox 0 g/ha",13%
same,"% visual injury, Obs",[1]; [15],20%
same,"% visual injury, Obs","[1]; Compound A 10, Bifenox 0 g/ha",8%
same,"% visual injury, Obs",[1]; [16],13%
same,"% visual injury, Obs",[2]; [17],78%
same,"% visual injury, Obs",[2]; [18],90%
same,"% visual injury, Obs",[2]; [19],93%
same,"% visual injury, Obs",[3]; [17],45%
same,"% visual injury, Obs",[3]; [18],55%
same,"% visual injury, Obs",[3]; [19],55%
same,"% visual injury, Obs",[4]; [17],23%
same,"% visual injury, Obs",[4]; [20],10%
same,"% visual injury, Obs",[4]; [18],35%
same,"% visual injury, Obs",[4]; [21],20%
same,"% visual injury, Obs",[4]; [19],45%
same,"% visual injury, Obs","[5]; Compound A 7.5, Bifenox 0 g/ha",60%
same,"% visual injury, Obs",[5]; [15],78%
same,"% visual injury, Obs","[5]; Compound A 10, Bifenox 0 g/ha",78%
same,"% visual injury, Obs",[5]; [16],80%
same,"% visual injury, Obs",Zea mays (maize); [15],0%
same,"% visual injury, Obs",Zea mays (maize); [16],0%
same,"% visual injury, Obs","[6]; Compound A 7.5, Bifenox 0 g/ha",45%
same,"% visual injury, Obs",[6]; [17],13%
same,"% visual injury, Obs","[6]; Compound A 10, Bifenox 0 g/ha",15%
same,"% visual injury, Obs",[6]; [18],15%
same,"% visual injury, Obs",[6]; [19],15%
same,"% visual injury, Obs",[7]; [17],88%
same,"% visual injury, Obs",[7]; [22],88%
same,"% visual injury, Obs",[7]; [20],83%
same,"% visual injury, Obs",[7]; [18],91%
same,"% visual injury, Obs",[7]; [23],92%
same,"% visual injury, Obs",[7]; [21],88%
same,"% visual injury, Obs",[7]; [19],91%
same,"% visual injury, Obs",[8]; [17],96%
same,"% visual injury, Obs",[8]; [18],98%
same,"% visual injury, Obs",[8]; [19],100%
same,"% visual injury, Obs",[9]; [24],45%
same,"% visual injury, Obs",[9]; [17],50%
same,"% visual injury, Obs",[9]; [22],45%
same,"% visual injury, Obs",[9]; [20],60%
same,"% visual injury, Obs",[9]; [25],60%
same,"% visual injury, Obs",[9]; [18],60%
same,"% visual injury, Obs",[9]; [23],60%
same,"% visual injury, Obs",[9]; [21],63%
same,"% visual injury, Obs",[9]; [19],63%
same,"% visual injury, Obs",[10]; [17],0%
same,"% visual injury, Obs",[10]; [18],0%
same,"% visual injury, Obs",[10]; [19],0%
same,"% visual injury, Obs",[11]; [17],60%
same,"% visual injury, Obs",[11]; [20],35%
same,"% visual injury, Obs",[11]; [18],65%
same,"% visual injury, Obs",[11]; [21],40%
same,"% visual injury, Obs",[11]; [19],73%
same,"% visual injury, Obs",[12]; [24],8%
same,"% visual injury, Obs",[12]; [17],0%
same,"% visual injury, Obs",[12]; [22],8%
same,"% visual injury, Obs",[12]; [20],0%
same,"% visual injury, Obs",[12]; [25],0%
same,"% visual injury, Obs",[12]; [18],0%
same,"% visual injury, Obs",[12]; [23],0%
same,"% visual injury, Obs",[12]; [21],0%
same,"% visual injury, Obs",[12]; [19],0%
same,"% visual injury, Obs",[13]; [15],0%
same,"% visual injury, Obs",[13]; [16],0%
same,"% visual injury, Obs",[14]; [17],10%
same,"% visual injury, Obs",[14]; [18],13%
same,"% visual injury, Obs",[14]; [19],10%
